Results on six molecules are retold here after article PMC6151598, “Soluble Epoxide Hydrolase Inhibitory Activity of Components Isolated from Apios americana Medik” (Molecules : A Journal of Synthetic Chemistry and Natural …, 2017).

“And” between values parts separate entries of the source, which are not always exact repeats. Identical values can stand only once.

For one assay, the system named is estrogen receptors. Set-up: method as in PMID 23402539, PMID 26806328. The note with it: cited from earlier work.
Assay [1] concerns the target T1, soluble epoxide hydrolase (sEH) (Homo sapiens, UniProt P34913).
T1 construct: purchased Cayman (Ann Arbor, MI, USA) 10011669
T1 sequence (P34913 1-555): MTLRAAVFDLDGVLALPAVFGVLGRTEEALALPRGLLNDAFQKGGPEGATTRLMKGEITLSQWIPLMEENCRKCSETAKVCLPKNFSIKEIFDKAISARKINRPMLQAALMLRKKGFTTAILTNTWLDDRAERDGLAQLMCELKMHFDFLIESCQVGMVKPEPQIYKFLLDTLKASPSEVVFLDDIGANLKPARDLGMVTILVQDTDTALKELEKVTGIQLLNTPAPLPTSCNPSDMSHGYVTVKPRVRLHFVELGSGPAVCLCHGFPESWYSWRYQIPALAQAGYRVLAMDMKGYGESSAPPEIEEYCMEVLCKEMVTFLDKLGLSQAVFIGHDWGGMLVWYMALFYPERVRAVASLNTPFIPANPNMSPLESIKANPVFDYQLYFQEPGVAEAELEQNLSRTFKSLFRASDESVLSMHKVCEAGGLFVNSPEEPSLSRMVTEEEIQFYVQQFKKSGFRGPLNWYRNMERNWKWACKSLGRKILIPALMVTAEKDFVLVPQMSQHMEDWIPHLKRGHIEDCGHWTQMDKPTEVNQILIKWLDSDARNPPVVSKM
Kind of assay: sEH inhibition assay (fluorometric, PHOME substrate). It counts as biochemical. The note with it: for IC50: concentrations 6.2 to 100 μM, triplicate, read-out: IC50, inhibitory activity on sEH; for Inhibitory ratio on sEH: tested at 100 μM, % of the control value. How it is done:
The sEH assay was performed as described previously. Briefly, 130 µL of sEH in 25.0 mM Bis-Tris-HCl buffer (pH 7.0) and 20.0 µL of the compounds (1–0.06 mM concentration) diluted in MeOH, were added in 96-well plate, to which 50.0 µL of 20.0 µM PHOME was added in the mixture. After initiating the enzyme reaction at 37 °C, the products by hydrolysis of the substrate were monitored at excitation and emission of 330 and 465 nm for one hour. Inhibitory activity (%) = 100 − [(C40 − C0) − (S40 − S0)/(C40 − C0)] × 100 (1) where C40 and S40 were the fluorescence of the control and inhibitor, respectively, after 40 min, S0 and C0 is the fluorescence of inhibitor and control, respectively, at 0 min.

Another assay deals with androgen receptors. The arrangement: method as in PMID 23402539, PMID 26806328. The note with it: cited from earlier work.
The target in assay [2] is T1, soluble epoxide hydrolase (sEH). Kind of assay: sEH enzyme kinetics (Lineweaver–Burk and Dixon plots). It counts as biochemical. The conditions noted are these: for Binding mode (inhibition type): Lineweaver–Burk plot.

Regarding `O=c1c(-c2ccc(O)cc2O)coc2cc(O)cc(O)c12` [2′-hydroxygenistein], in the assay with estrogen receptors, the “Binding activity with estrogen receptors” value was “binding activities”. Broadly, the IC50 is the concentration that inhibits the measured activity by half. For `O=C(O)c1ccc(O)cc1` [Compound 8, 4-hydroxybenzoic acid], in assay [1], the IC50 was 69.3 ± 1.9 µM and the “Inhibitory ratio on sEH” value was “over 50%”. `O=c1c(-c2ccc(O)cc2O)coc2cc(O[C@@H]3O[C@H](CO[C@@H]4O[C@H](CO)[C@@H](O)[C@H](O)[C@H]4O)[C@@H](O)[C@H](O)[C@H]3O)cc(O)c12` [Compound 7, 2′-hydroxygenistein-7-O-gentibioside]: the “Blocking of [3H]-dihydrotestosterone binding with androgen receptors” value with androgen receptors is listed as “blocked the binding”.

Regarding `O=c1c(-c2ccc(O)cc2)coc2cc(O)cc(O)c12` [Compound 2, genestein], the “Binding mode (inhibition type)” value in assay [2] was “mixed inhibitor”. Besides, the “Binding activity with estrogen receptors” value in the assay on estrogen receptors is listed as “binding activities”. Regarding `O=c1c(-c2ccc(O)cc2O)coc2cc(O[C@@H]3O[C@H](CO)C(O)[C@H](O)C3O)cc(O)c12` (some centres unmarked) [Compound 6, 2′-hydroxygenistein-7-O-glucoside], the “Blocking of [3H]-dihydrotestosterone binding with androgen receptors” value with androgen receptors is listed as “blocked the binding”. The term Ki denotes the equilibrium dissociation constant of an inhibitor or competing ligand from its target. For `COc1cc(O)cc2c1C(=O)C1(O)c3ccc(O)cc3OC1O2` (centres unmarked) [Compound 1, 5-methoxy-2,5,7,4′-tetrahydroxy-coumaronochromone], the “Binding mode (inhibition type)” value in assay [2] was “competitive inhibitor”. The inhibitory constant (Ki) in assay [2] (inhibitor 0, 25, 50 μM, substrate 3.1 to 25 μM, read-out: Ki (Dixon plot)) came to 21 µM. Also, in assay [1], the 50% inhibitory concentration (IC50) is < 50 µM and 43.2 µM; the “Inhibitory ratio on sEH” value is listed as “over 50%”.
